In general, IC50 refers to the concentration at which inhibition is half-maximal. Broadly, the inhibition is the relative decrease from the control value, in per cent.

Where two headings read alike, the source gives them in different places.

Experimental findings from US20100234377A1 (priority 2007, published 2010) are described below.

Data set [1] deals with T1, human Prostaglandin D Synthase (GST2) (Homo sapiens, UniProt O60760).
T1 construct: the open reading frame of human Prostaglandin D Synthase was amplified from cDNA; made in house; host or cells: E. coli TOP10F'
The experiment in a line: Homogeneous biochemical assay of human Prostaglandin D Synthase (GST2) based on its glutathion-S-transferase activity (GSH conjugation to monochlorobimane, fluorescence). Summed up:
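N-His-tagged human PGD synthase from E. coli, assayed via its GST activity: GSH conjugation to monochlorobimane in 50 mM MES/KOH pH 6.1, 0.7 mM GSH, 2 mM MgCl2. Compounds at final picomolar to triple-digit micromolar concentrations.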

A further data set has as its target K+ATP channel (Rattus norvegicus, UniProt Q09429). The experiment in a line: KATP channel receptor binding assay ([3H]glibenclamide). The note with it: [3H]glibenclamide 0.1 nM, rat cerebral cortex; for inhibition at 10 µM: Table 1, 10 μM compound concentration, read-out: K^+ATP Channel (% Inhibition of Control Specific Binding); for K+ATP Channel (% Inhibition of Control Specific Binding): Table 3. As for the experimental part: KATP Channel Mediated Binding Assay
The compounds of Comparative Examples I to XII and Compounds 59, 30, 22, 76 and 69 were tested for their effects in an in vitro receptor binding KATP channel assay.
(§1) The specific ligand binding to the receptor is defined as the difference between the total binding and the non-specific binding determined in the presence of an excess of unlabelled ligand. The results are expressed as a percent inhibition of control specific binding obtained in the presence of the test compounds.
(§2) In each experiment, the respective reference compound was tested concurrently with the test compounds in order to assess the assay suitability. It was tested at several concentrations (for IC50 value determination), and the data were compared with historical values.

In the next data set the target is T2, PPARγ (h) (Homo sapiens, UniProt P37231).
T2 construct: host or cells: E. coli
T2 sequence (P37231 1-505): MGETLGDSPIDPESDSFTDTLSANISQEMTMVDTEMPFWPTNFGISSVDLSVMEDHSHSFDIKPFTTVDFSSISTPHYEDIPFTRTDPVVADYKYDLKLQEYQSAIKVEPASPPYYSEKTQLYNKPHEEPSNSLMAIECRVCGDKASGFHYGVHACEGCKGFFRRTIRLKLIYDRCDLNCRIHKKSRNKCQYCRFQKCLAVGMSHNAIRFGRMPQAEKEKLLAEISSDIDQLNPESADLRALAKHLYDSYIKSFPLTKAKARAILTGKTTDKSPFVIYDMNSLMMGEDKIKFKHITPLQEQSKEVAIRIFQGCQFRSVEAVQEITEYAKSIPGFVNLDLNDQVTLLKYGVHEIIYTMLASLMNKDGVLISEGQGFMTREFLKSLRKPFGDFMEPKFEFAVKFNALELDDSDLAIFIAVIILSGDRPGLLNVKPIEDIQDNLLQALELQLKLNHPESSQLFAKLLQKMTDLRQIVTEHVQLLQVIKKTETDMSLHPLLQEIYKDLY
The experiment in a line: PPARγ receptor binding assay ([3H]rosiglitazone). The note with it: Table 3; [3H]rosiglitazone 10 nM, human recombinant.
Source text: Selected GST2 Inhibitors Screened Against PPARγ and KATP Channel Modulator Assays
Selected GST2 inhibitors of General Formula (I) were screened in a PPARγ assay to determine their modulator effects.
as §1, §2

Data set [2] in a line: Mouse microsomal metabolism assay. In kind it is in vitro ADME. The note with it: liver microsomes; mouse hepatic microsomes, 37° C., phosphate buffer pH 7.4, NADPH regenerating system; read-out: Mouse t½. As for the experimental part:
Selected GST2 Inhibitors from Formula I Assessed in Mouse Microsomal Metabolism Assay
Selected GST2 inhibitors of General Formula (I) were screened in a mouse hepatic microsome assay to determine microsomal metabolism.
Test Articles were prepared in 50% acetonitrile.
Mouse hepatic microsomes supplied by BD GenTest Inc or an equivalent reputable supplier.
Test Articles are added to incubation plates containing phosphate buffer pH 7.4 and microsomes at a suitable protein concentration. Incubation plates are placed on a shaking water bath at 37° C. for 5 minutes pre-incubation. An aliquot of the reaction mixture is taken and added to acetonitrile (3:1). This is designated time […]. NADPH regenerating system in phosphate buffer pH 7.4 is added to initiate reactions. Aliquots from the incubation wells are taken at a number of time points and added to acetonitrile. Control incubations contained no microsomes or compounds with known microsomal stabilities. Samples were subject to centrifugation to remove denatured protein and the supernatants were analysed by LCMS.
Half lives were calculated from the log vs time transformed data according to the following equation: […]
Where λ is the slope of the linear regression line under first order (Test Article concentration <Km) conditions.
In general terms: Liver microsomes are vesicles of endoplasmic reticulum, rich in cytochrome P450 enzymes.

Setting [3] is: Table 1, read-out: GST2 IC50 Range.
Where [4] appears, read: Table 3, read-out: GST2 IC50 range.
Where [5] appears, read: given beside the compound name in Examples 1 to 167, read-out: Potency Range (GST2 IC50).

Chain of K+ATP channel (Q09429 whole entry): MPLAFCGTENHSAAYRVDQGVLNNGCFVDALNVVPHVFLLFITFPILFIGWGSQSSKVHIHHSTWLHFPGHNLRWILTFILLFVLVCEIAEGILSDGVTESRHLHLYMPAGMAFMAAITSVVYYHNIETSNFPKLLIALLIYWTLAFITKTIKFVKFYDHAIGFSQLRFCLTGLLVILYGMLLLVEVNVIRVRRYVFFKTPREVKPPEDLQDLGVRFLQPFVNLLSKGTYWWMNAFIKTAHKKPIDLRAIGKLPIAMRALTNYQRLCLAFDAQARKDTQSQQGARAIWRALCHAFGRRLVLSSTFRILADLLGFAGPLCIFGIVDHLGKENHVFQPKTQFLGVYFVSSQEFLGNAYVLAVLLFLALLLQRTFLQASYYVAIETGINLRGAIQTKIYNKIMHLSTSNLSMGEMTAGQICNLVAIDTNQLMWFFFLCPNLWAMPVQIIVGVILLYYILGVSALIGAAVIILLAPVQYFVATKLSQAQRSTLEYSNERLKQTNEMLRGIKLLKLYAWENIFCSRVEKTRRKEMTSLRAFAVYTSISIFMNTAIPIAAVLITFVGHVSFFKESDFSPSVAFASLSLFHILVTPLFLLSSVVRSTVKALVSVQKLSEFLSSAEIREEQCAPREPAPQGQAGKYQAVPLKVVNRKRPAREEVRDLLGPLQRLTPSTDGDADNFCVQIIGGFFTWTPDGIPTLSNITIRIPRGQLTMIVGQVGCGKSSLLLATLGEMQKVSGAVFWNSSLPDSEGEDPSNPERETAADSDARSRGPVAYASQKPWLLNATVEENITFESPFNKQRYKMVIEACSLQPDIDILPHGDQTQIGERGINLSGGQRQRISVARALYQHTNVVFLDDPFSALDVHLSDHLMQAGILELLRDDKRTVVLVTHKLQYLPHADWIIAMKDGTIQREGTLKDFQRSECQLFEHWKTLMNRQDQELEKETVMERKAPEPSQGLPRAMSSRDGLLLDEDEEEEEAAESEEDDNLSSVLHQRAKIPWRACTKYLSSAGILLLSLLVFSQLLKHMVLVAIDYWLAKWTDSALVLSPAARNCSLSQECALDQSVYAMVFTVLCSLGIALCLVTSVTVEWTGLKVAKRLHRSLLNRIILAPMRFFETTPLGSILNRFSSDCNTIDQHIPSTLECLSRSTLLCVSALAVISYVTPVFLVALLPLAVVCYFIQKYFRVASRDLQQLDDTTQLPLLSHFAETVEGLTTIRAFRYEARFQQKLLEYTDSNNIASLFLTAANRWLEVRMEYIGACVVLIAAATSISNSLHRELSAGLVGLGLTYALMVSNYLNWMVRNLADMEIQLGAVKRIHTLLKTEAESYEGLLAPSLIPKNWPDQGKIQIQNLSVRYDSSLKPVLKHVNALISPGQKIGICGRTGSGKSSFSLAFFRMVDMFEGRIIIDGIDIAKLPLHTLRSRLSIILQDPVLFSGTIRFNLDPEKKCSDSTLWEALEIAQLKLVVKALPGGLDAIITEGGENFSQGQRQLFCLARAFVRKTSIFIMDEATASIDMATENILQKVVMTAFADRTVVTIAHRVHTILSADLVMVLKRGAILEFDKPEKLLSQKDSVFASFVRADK
Chain of K+ATP channel (P70673 whole entry partner): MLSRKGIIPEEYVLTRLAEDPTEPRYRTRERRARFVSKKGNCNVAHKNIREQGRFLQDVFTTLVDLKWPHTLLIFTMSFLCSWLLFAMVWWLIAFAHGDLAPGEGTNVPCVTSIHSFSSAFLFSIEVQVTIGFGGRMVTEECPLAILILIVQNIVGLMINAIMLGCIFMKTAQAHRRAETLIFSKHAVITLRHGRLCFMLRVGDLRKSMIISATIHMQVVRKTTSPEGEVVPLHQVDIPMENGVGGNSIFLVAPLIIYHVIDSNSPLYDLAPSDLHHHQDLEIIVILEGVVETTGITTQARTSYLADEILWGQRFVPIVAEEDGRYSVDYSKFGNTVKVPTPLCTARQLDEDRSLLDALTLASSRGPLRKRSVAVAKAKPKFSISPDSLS
T1 sequence (O60760 whole entry): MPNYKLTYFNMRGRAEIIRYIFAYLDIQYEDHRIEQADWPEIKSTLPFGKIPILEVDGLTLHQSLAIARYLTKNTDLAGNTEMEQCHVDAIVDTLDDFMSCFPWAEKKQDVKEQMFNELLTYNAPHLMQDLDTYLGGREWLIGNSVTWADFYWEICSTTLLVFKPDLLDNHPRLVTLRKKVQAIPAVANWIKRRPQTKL

With `O=C(Nc1ccc(N2CCN(C(=O)OC3CCOC3)CC2)c(F)c1)N1CCN(C(=O)c2cccc(F)c2)CC1` (racemic) [Compound 59, 4-(2-Fluoro-4-{[4-(3-fluoro-benzoyl)-piperazine-1-carbonyl]-amino}-phenyl)-piperazine-1-carboxylic acid tetrahydro-furan-3-yl ester], the IC50 in data set [1] (setting [3]), in data set [1] (setting [4]) and in data set [1] (setting [5]) was 11 to 100 nM in each case. Moreover, the inhibition at 10 µM at K+ATP channel worked out at 15%. Further, the “K+ATP Channel (% Inhibition of Control Specific Binding)” value at K+ATP channel was 12%. Besides, the “PPARγ (% Inhibition of Control Specific Binding)” value on PPARγ (h) is recorded as 15%.

For `Cc1nc(-c2cccc(NC(=O)N3CCN(C(=O)c4cccc(F)c4)CC3)c2)no1` [Compound 30, 4-(3-Fluoro-benzoyl)-piperazine-1-carboxylic acid [3-(5-methyl-[1,2,4]oxadiazol-3-yl)-phenyl]-amide], the IC50 in data set [1] (setting [3]), in data set [1] (setting [4]) and in data set [1] (setting [5]) was 11 to 100 nM each time. Moreover, the inhibition at 10 µM on K+ATP channel was 16%. The “K+ATP Channel (% Inhibition of Control Specific Binding)” value on K+ATP channel is 13%. The “PPARγ (% Inhibition of Control Specific Binding)” value at PPARγ (h) came to 16%.

In the case of `NC(=O)c1ccc(NC(=O)N2CCN(C(=O)c3cccc(F)c3)CC2)cc1` [Compound 105, 4-(3-Fluoro-benzoyl)-piperazine-1-carboxylic acid (4-carbamoyl-phenyl)-amide], the half-maximal inhibitory concentration (IC50) in data set [1] (setting [5]) fell in the range of 101 to 1000 nM. Also, the half-life in data set [2] is over 1 h.

With `O=C(Nc1cccc(NC(=O)N2CCN(C(=O)c3cccc(F)c3)CC2)c1)c1ccc[n+]([O-])c1` [Compound 109, 4-(3-Fluoro-benzoyl)-piperazine-1-carboxylic acid {3-[(1-oxy-pyridine-3-carbonyl)-amino]-phenyl}-amide], the IC50 in data set [1] (setting [5]) lay in the range of 101 to 1000 nM. In data set [2], the half-life is over 1 h.

Take `O=C(Nc1ccc(NC(=O)N2CCN(C(=O)c3cccc(F)c3)CC2)cc1)c1ccncc1` [Compound 123, 4-(3-Fluoro-benzoyl)-piperazine-1-carboxylic acid {4-[(pyridine-4-carbonyl)-amino]-phenyl}-amide]: in data set [1] (setting [5]), the IC50 fell in the range of 101 to 1000 nM. Besides, in data set [2], the half-life was over 1 h.

For the compound `CS(=O)(=O)Nc1ccc(NC(=O)N2CCN(C(=O)c3cccc(F)c3)CC2)cc1` [Compound 126, 4-(3-Fluoro-benzoyl)-piperazine-1-carboxylic acid (4-methanesulfonylamino-phenyl)-amide], the IC50 in data set [1] (setting [5]) fell in the range of 101 to 1000 nM. Besides, the half-life in data set [2] is over 1 h.

In the case of `O=C(Nc1ccc(N2CCOCC2)nc1)N1CCN(C(=O)c2cccc(F)c2)CC1` [Compound 154, 4-(3-Fluoro-benzoyl)-piperazine-1-carboxylic acid (6-morpholin-4-yl-pyridin-3-yl)-amide], in data set [1] (setting [5]), the 50% inhibitory concentration (IC50) lay within 11 to 100 nM. Also, the half-life in data set [2] was over 1 h.

Regarding `O=C(Nc1ccc(F)cc1)N1CCN(C(=O)c2cccc(F)c2)CC1` [Compound 155, 4-(3-Fluoro-benzoyl)-piperazine-1-carboxylic acid (4-fluoro-phenyl)-amide], in data set [1] (setting [5]), the concentration for half-maximal inhibition (IC50) lay within 101 to 1000 nM. Also, the half-life in data set [2] turned out to be 0.99 h.

For the compound `Cc1ccccc1C(=O)N1CCN(C(=O)Nc2ccc(F)cc2)CC1` [Compound 156, 4-(2-Methyl-benzoyl)-piperazine-1-carboxylic acid (4-fluoro-phenyl)-amide], the IC50 in data set [1] (setting [5]) fell in the range of 101 to 1000 nM. For the same compound, in data set [2], the half-life stood at 0.523 h.

For the compound `O=C(Nc1cc(C(F)(F)F)cc(C(F)(F)F)c1)N1CCN(C(=O)c2ccco2)CC1` [Compound I, 4-(Furan-2-carbonyl)-piperazine-1-carboxylic acid (3,5-bis-trifluoromethyl-phenyl)-amide, reference compound], in data set [1] (setting [3]), the IC50 was 101 to 1000 nM. For the same compound, the inhibition at 10 µM at K+ATP channel is -1%.

For the compound `O=C(Nc1cc(Cl)cc(Cl)c1)N1CCN(C(=O)c2ccco2)CC1` [Compound II, 4-(Furan-2-carbonyl)-piperazine-1-carboxylic acid (3,5-dichloro-phenyl)-amide, reference compound], in data set [1] (setting [3]), the IC50 was in the range of 101 to 1000 nM. In addition, the inhibition at 10 µM at K+ATP channel is -17%.

As to `O=C(Nc1cc(C(F)(F)F)ccc1Cl)N1CCN(C(=O)c2ccco2)CC1` [Compound III, 4-(Furan-2-carbonyl)-piperazine-1-carboxylic acid (2-chloro-5-trifluoromethyl-phenyl)-amide, reference compound], the half-maximal inhibitory concentration (IC50) in data set [1] (setting [3]) was in the range of 101 to 1000 nM. Besides, the inhibition at 10 µM on K+ATP channel is -8%.

With `O=C(c1ccco1)N1CCN(C(=S)Nc2cc(Cl)cc(Cl)c2)CC1` [Compound IV, 4-(Furan-2-carbonyl)-piperazine-1-carbothioic acid (3,5-dichloro-phenyl)-amide, reference compound], in data set [1] (setting [3]), the IC50 was in the range of 101 to 1000 nM. Moreover, the inhibition at 10 µM at K+ATP channel was -7%.

`O=C(c1ccccc1)N1CCN(C(=S)Nc2cc(C(F)(F)F)cc(C(F)(F)F)c2)CC1` [Compound IX, 4-Benzoyl-piperazine-1-carbothioic acid (3,5-bis-trifluoromethyl-phenyl)-amide, reference compound]: the half-maximal inhibitory concentration (IC50) in data set [1] (setting [3]) was in the range of 101 to 1000 nM. Further, the inhibition at 10 µM on K+ATP channel was 10%.

Turning to `O=C(c1ccco1)N1CCN(C(=S)Nc2cc(C(F)(F)F)ccc2Cl)CC1` [Compound V, 4-(Furan-2-carbonyl)-piperazine-1-carbothioic acid (2-chloro-5-trifluoromethyl-phenyl)-amide, reference compound], the 50% inhibitory concentration (IC50) in data set [1] (setting [3]) was 101 to 1000 nM. Also, the inhibition at 10 µM on K+ATP channel is -20%.

In the case of `O=C(c1ccco1)N1CCN(C(=S)Nc2cc(C(F)(F)F)cc(C(F)(F)F)c2)CC1` [Compound VI, 4-(Furan-2-carbonyl)-piperazine-1-carbothioic acid (3,5-bis-trifluoromethyl-phenyl)-amide], on K+ATP channel, the inhibition at 10 µM turned out to be 4%.

`O=C(Nc1cc(Cl)cc(Cl)c1)N1CCN(C(=O)c2ccccc2)CC1` [Compound VII, 4-Benzoyl-piperazine-1-carboxylic acid (3,5-dichloro-phenyl)-amide, reference compound]: the IC50 in data set [1] (setting [3]) lay within 11 to 100 nM. For the same compound, on K+ATP channel, the inhibition at 10 µM was -10%.

Turning to `O=C(Nc1cc(C(F)(F)F)ccc1Cl)N1CCN(C(=O)c2ccccc2)CC1` [Compound VIII, 4-Benzoyl-piperazine-1-carboxylic acid (2-chloro-5-trifluoromethyl-phenyl)-amide, reference compound], the half-maximal inhibitory concentration (IC50) in data set [1] (setting [3]) was in the range of 101 to 1000 nM. Further, the inhibition at 10 µM on K+ATP channel was -3%.

Take `O=C(c1ccccc1)N1CCN(C(=S)Nc2cc(Cl)cc(Cl)c2)CC1` [Compound X, 4-Benzoyl-piperazine-1-carbothioic acid (3,5-dichloro-phenyl)-amide, reference compound]: the IC50 in data set [1] (setting [3]) is 101 to 1000 nM. In addition, the inhibition at 10 µM at K+ATP channel is -10%.

Consider `O=C(c1ccccc1)N1CCN(C(=S)Nc2cc(C(F)(F)F)ccc2Cl)CC1` [Compound XI, 4-Benzoyl-piperazine-1-carbothioic acid (2-chloro-5-trifluoromethyl-phenyl)-amide, reference compound], for which the IC50 in data set [1] (setting [3]) lay in the range of 11 to 100 nM. For the same compound, on K+ATP channel, the inhibition at 10 µM is -12%.

Regarding `O=C(c1ccccc1)N1CCN(C(=S)Nc2ccc(C(F)(F)F)cc2)CC1` [Compound XII, 4-Benzoyl-piperazine-1-carbothioic acid (4-trifluoromethyl-phenyl)-amide, reference compound], the IC50 in data set [1] (setting [3]) was 11 to 100 nM. The inhibition at 10 µM on K+ATP channel was -14%.
